Experimental data: US20260242428A1, “POLYETHYLENIMINE-MODIFIED CRY PROTEINS AND THEIR USE” (priority 2024, published 2026)

How the values were obtained:
[1] = molecular target: T1, PEI-modified Cry3Aa (3A-PEI) crystals; Cry3Aa, SEQ ID NO: 4 (Bacillus thuringiensis subsp. tenebrionis, UniProt P0A379, F640R/R158P); test: Cofactor binding capacity of 3A-PEI crystals; conditions: 0.25 mM cofactor, 20 μg crystals, 10° C., 30 min
T1 construct: made in house; host or cells: Bacillus thuringiensis B7407G
Method: To compare the binding capacity of 3A-PEI crystals with Cry3Aa and Pos3Aa crystals, the same experiment was conducted as the control.
To evaluate whether 3A-PEI crystals could binding to other phosphorylated cofactors, PLP, NAD^+, NADP^+, NADPH, FADH2, CoA, Riboflavin, and TPP (each at a concentration of 0.25 mM) were incubated with 20 μg of 3A-PEI crystals for 30 min under slow rotation at 10° C. Subsequently, the crystals were centrifugated and the amount of bound cofactor within the crystals was quantified.

[2] = system: 3A-FDH/3A-LDH particles, unmodified (co-immobilized Cry3Aa-formate dehydrogenase and Cry3Aa-leucine dehydrogenase); test: NADH binding capacity of 3A-FDH/3A-LDH particles without PEI; conditions: absorbance at 340 nm
[3] = molecular target: T2, PEI-modified CadA-Cry1Ab fusion particles (E. coli lysine decarboxylase CadA, NP_418555, fused to Cry1Ab) (Escherichia coli, UniProt P0A9H3); test: PLP binding capacity of PEI-CadA-Cry1Ab particles
T2 construct: made in house; host or cells: E. coli BL21(DE3)
Method: For binding analysis, PEI-CadA-Cry1Ab fusion particles (50 μg/mL) were incubated with increasing concentrations of PLP (0-2 mM) for 25 min under gentle rotation at room temperature. After incubation, the particles were centrifuged at 8000 rpm for 10 min, and the unbound PLP in the supernatant was quantified. A calibration curve, generated from PLP standards treated under identical conditions, was used to determine the amount of PLP bound to the particles. To stabilize the absorbance peak of PLP following Schiff base formation with the protein, 1 M HCl was added to the unbound PLP supernatants in a 1:1 (v/v) ratio. After a 5-minute incubation, the absorbance of the unbound PLP was measured at 294 nm using an Eppendorf Bio-Spectrometer (Eppendorf AG. Germany). The PLP concentration was determined using a standard curve generated for various PLP amounts treated with 1M HCL based on the Beer-Lambert law.

[4] = molecular target: T3, CadA-Cry1Ab fusion particles, unmodified (E. coli lysine decarboxylase CadA, NP_418555, fused to Cry1Ab) (Escherichia coli, UniProt P0A9H3); test: PLP binding capacity of unmodified CadA-Cry1Ab particles; conditions: before PEI modification
T3 construct: made in house; host or cells: E. coli BL21(DE3)

SMILES | binding affinity (binding capacity of cofactor) [1] | NADH retained [2] | PLP binding capacity ([3]; PLP 0-2 mM, 25 min, room temperature) | PLP binding capacity enhancement by PEI modification ([3]; vs unmodified CadA-Cry1Ab) [fold] | PLP binding capacity [4]
Cc1ncc(C[n+]2csc(CCOP(=O)(O)OP(=O)(O)O)c2C)c(N)n1 [TPP] | 160±1 μmol/g of support |  |  |  | 
NC(=O)C1=CN([C@@H]2O[C@H](COP(=O)(O)OP(=O)(O)OC[C@H]3O[C@@H](n4cnc5c(N)ncnc54)[C@H](O)[C@@H]3O)[C@@H](O)[C@H]2O)C=CC1 [NADH, nicotinamide adenine dinucleotide] |  | ~ 4.2±0.3 μmol NADH per g |  |  | 
Cc1ncc(COP(=O)(O)O)c(C=O)c1O [PLP, Pyridoxal 5′-phosphate] | 650±2 μmol/g of support |  | ~ 1300 μmol/g | 13 | ~ 100 μmol/g
